Where two headings read alike, the source gives them in different places.
Legend:
Format in all cases: cell-based
A498 = experiment: NCI60 five-dose screen; conditions: Homo sapiens, A498
SF-539 [1] = experiment: NCI60 one-dose screen; conditions: Homo sapiens, SF-539, read-out: Growth percent
MDA-MB-435 = experiment: NCI60 one-dose screen; conditions: Homo sapiens, MDA-MB-435, read-out: Growth percent
MCF7 [2] = experiment: NCI60 five-dose screen; conditions: Homo sapiens, MCF7
SR = experiment: NCI60 one-dose screen; conditions: Homo sapiens, read-out: Growth percent
786-0 = experiment: NCI60 five-dose screen; conditions: Homo sapiens, 786-0
SF-539 [3] = experiment: NCI60 five-dose screen; conditions: Homo sapiens, SF-539
SK-MEL-2 = experiment: NCI60 one-dose screen; conditions: Homo sapiens, SK-MEL-2, read-out: Growth percent
NCI-H226 = experiment: NCI60 one-dose screen; conditions: Homo sapiens, NCI-H226, read-out: Growth percent
EKVX = experiment: NCI60 five-dose screen; conditions: Homo sapiens
SN12C = experiment: NCI60 one-dose screen; conditions: Homo sapiens, read-out: Growth percent
U251 = experiment: NCI60 one-dose screen; conditions: Homo sapiens, U-251, read-out: Growth percent
RXF 393 = experiment: NCI60 five-dose screen; conditions: Homo sapiens, RXF 393
HOP-62 = experiment: NCI60 one-dose screen; conditions: Homo sapiens, HOP-62, read-out: Growth percent
NCI-H460 [4] = experiment: NCI60 five-dose screen; conditions: Homo sapiens, NCI-H460
MDA-MB-468 = experiment: NCI60 five-dose screen; conditions: Homo sapiens, MDA-MB-468
COLO 205 = experiment: NCI60 one-dose screen; conditions: Homo sapiens, COLO 205, read-out: Growth percent
HT29 = experiment: NCI60 one-dose screen; conditions: Homo sapiens, HT-29, read-out: Growth percent
SF-295 = experiment: NCI60 five-dose screen; conditions: Homo sapiens, SF-295
MCF7 [5] = experiment: NCI60 one-dose screen; conditions: Homo sapiens, MCF7, read-out: Growth percent
PC-3 = experiment: NCI60 five-dose screen; conditions: Homo sapiens, PC-3
SNB-19 [6] = experiment: NCI60 five-dose screen; conditions: Homo sapiens, SNB-19
SK-MEL-28 = experiment: NCI60 five-dose screen; conditions: Homo sapiens, SK-MEL-28
HOP-92 = experiment: NCI60 five-dose screen; conditions: Homo sapiens, HOP-92
TK-10 = experiment: NCI60 five-dose screen; conditions: Homo sapiens, TK-10
SF-268 = experiment: NCI60 one-dose screen; conditions: Homo sapiens, SF-268, read-out: Growth percent
[7] = test system: Non-small Cell Lung Cancer panel; experiment: NCI60 five-dose screen, panel mean; conditions: Homo sapiens
Prostate Cancer panel = experiment: NCI60 five-dose screen, panel mean; conditions: Homo sapiens
KM12 [8] = experiment: NCI60 five-dose screen; conditions: Homo sapiens, KM12
MALME-3M = experiment: NCI60 one-dose screen; conditions: Homo sapiens, Malme-3M, read-out: Growth percent
KM12 [9] = experiment: NCI60 one-dose screen; conditions: Homo sapiens, KM12, read-out: Growth percent
UO-31 = experiment: NCI60 one-dose screen; conditions: Homo sapiens, UO-31, read-out: Growth percent
RPMI-8226 [10] = experiment: NCI60 one-dose screen; conditions: Homo sapiens, RPMI-8226, read-out: Growth percent
HL-60(TB) = experiment: NCI60 five-dose screen; conditions: Homo sapiens, HL-60
LOX IMVI = experiment: NCI60 one-dose screen; conditions: Homo sapiens, read-out: Growth percent
NCI-H460 [11] = experiment: NCI60 one-dose screen; conditions: Homo sapiens, NCI-H460, read-out: Growth percent
NCI-H23 = experiment: NCI60 five-dose screen; conditions: Homo sapiens, NCI-H23
RPMI-8226 [12] = experiment: NCI60 five-dose screen; conditions: Homo sapiens, RPMI-8226
SW-620 = experiment: NCI60 one-dose screen; conditions: Homo sapiens, SW-620, read-out: Growth percent
OVCAR-3 = experiment: NCI60 five-dose screen; conditions: Homo sapiens, OVCAR-3
SK-MEL-5 = experiment: NCI60 one-dose screen; conditions: Homo sapiens, SK-MEL-5, read-out: Growth percent
OVCAR-8 = experiment: NCI60 five-dose screen; conditions: Homo sapiens, OVCAR-8
Melanoma panel = experiment: NCI60 five-dose screen, panel mean; conditions: Homo sapiens
UACC-257 = experiment: NCI60 five-dose screen; conditions: Homo sapiens, UACC-257
SNB-19 [13] = experiment: NCI60 one-dose screen; conditions: Homo sapiens, SNB-19, read-out: Growth percent
DU-145 = experiment: NCI60 five-dose screen; conditions: Homo sapiens, DU-145

`CC[C@]12C=CCN3CC[C@@]4(c5ccc(OC)cc5N(C)[C@H]4[C@@](O)(C(=O)OC)[C@@H]1OC(=O)CCC[P+](c1ccccc1)(c1ccccc1)c1ccccc1OC)[C@@H]32` [9f] was tested, and the GI50 (A498) was 2650 nM, the activity at 10 µM (SF-539 [1]) was -93.8% and the activity at 10 µM (MDA-MB-435) was -73.7%. For the same molecule, the GI50 (MCF7 [2]) was 288 nM, the activity at 10 µM (SR) was -7.49% and the GI50 (786-0) was 1980 nM. It also gave a GI50 (SF-539 [3]) of 434 nM, an activity at 10 µM (SK-MEL-2) of -98% and an activity at 10 µM (NCI-H226) of -38.6%. It also gave a GI50 (EKVX) of 1220 nM, an activity at 10 µM (SN12C) of -80.6% and an activity at 10 µM (U251) of -96.9%. For the same molecule, the GI50 (RXF 393) was 247 nM, the activity at 10 µM (HOP-62) was -13.7% and the GI50 (NCI-H460 [4]) was 774 nM. The GI50 (MDA-MB-468) was 129 nM, the activity at 10 µM (COLO 205) was -90.7% and the activity at 10 µM (HT29) was -57.8%. The GI50 (SF-295) was 1830 nM, the activity at 10 µM (MCF7 [5]) was -68.1% and the GI50 (PC-3) was 268 nM. It also gave a GI50 (SNB-19 [6]) of 313 nM, a GI50 (SK-MEL-28) of 506 nM and a GI50 (HOP-92) of 172 nM. The GI50 (TK-10) was 1940 nM, the activity at 10 µM (SF-268) was -76.1% and the GI50 ([7]; read-out: Mean GI50) was 1050 nM. For the same molecule, the GI50 (Prostate Cancer panel; read-out: Mean GI50) was 340 nM, the GI50 (KM12 [8]) was 331 nM and the activity at 10 µM (MALME-3M) was -96.7%. For the same molecule, the activity at 10 µM (KM12 [9]) was -93.4%, the activity at 10 µM (UO-31) was 44% and the activity at 10 µM (RPMI-8226 [10]) was -38%. The GI50 (HL-60(TB)) was 170 nM, the activity at 10 µM (LOX IMVI) was -95.7% and the activity at 10 µM (NCI-H460 [11]) was -26.9%. The GI50 (NCI-H23) was 413 nM, the GI50 (RPMI-8226 [12]) was 106 nM and the activity at 10 µM (SW-620) was -48.7%. The GI50 (OVCAR-3) was 297 nM, the activity at 10 µM (SK-MEL-5) was -98.4% and the GI50 (OVCAR-8) was 790 nM. It also gave a GI50 (Melanoma panel; read-out: Mean GI50) of 490 nM, a GI50 (UACC-257) of 406 nM and an activity at 10 µM (SNB-19 [13]) of -95.2%. The GI50 (DU-145) was 418 nM.

Molecule `CC[C@]12C=CCN3CC[C@@]4(c5ccc(OC)cc5N(C)[C@H]4[C@@](O)(C(=O)OC)[C@@H]1OC(=O)CCCC[P+](c1ccc(C)cc1)(c1ccc(C)cc1)c1ccc(C)cc1)[C@@H]32` [10a] has a GI50 (A498) of 2170 nM, an activity at 10 µM (SF-539 [1]) of -98.7% and an activity at 10 µM (MDA-MB-435) of -86.8%. For the same molecule, the GI50 (MCF7 [2]) was 325 nM, the activity at 10 µM (SR) was 25.8% and the GI50 (786-0) was 1640 nM. It also gave a GI50 (SF-539 [3]) of 1220 nM, an activity at 10 µM (SK-MEL-2) of -87.2% and an activity at 10 µM (NCI-H226) of -78.6%. For the same molecule, the GI50 (EKVX) was 1050 nM, the activity at 10 µM (SN12C) was -88.5% and the activity at 10 µM (U251) was -93.6%. It also gave a GI50 (RXF 393) of 468 nM, an activity at 10 µM (HOP-62) of -84% and a GI50 (NCI-H460 [4]) of 600 nM. For the same molecule, the GI50 (MDA-MB-468) was 264 nM, the activity at 10 µM (COLO 205) was -64.1% and the activity at 10 µM (HT29) was -81.8%. For the same molecule, the GI50 (SF-295) was 1620 nM, the activity at 10 µM (MCF7 [5]) was -81.2% and the GI50 (PC-3) was 450 nM. For the same molecule, the GI50 (SNB-19 [6]) was 960 nM, the GI50 (SK-MEL-28) was 485 nM and the GI50 (HOP-92) was 490 nM. It also gave a GI50 (TK-10) of 1490 nM, an activity at 10 µM (SF-268) of -61.1% and a GI50 ([7]; read-out: GI50 Mean) of 1070 nM. The GI50 (Prostate Cancer panel; read-out: GI50 Mean) was 800 nM, the GI50 (KM12 [8]) was 596 nM and the activity at 10 µM (MALME-3M) was -96%. For the same molecule, the activity at 10 µM (KM12 [9]) was -73.6%, the activity at 10 µM (UO-31) was -96% and the activity at 10 µM (RPMI-8226 [10]) was -46%. It also gave a GI50 (HL-60(TB)) of 221 nM, an activity at 10 µM (LOX IMVI) of -94.5% and an activity at 10 µM (NCI-H460 [11]) of -86.6%. The GI50 (NCI-H23) was 855 nM, the GI50 (RPMI-8226 [12]) was 283 nM and the activity at 10 µM (SW-620) was -88.2%. For the same molecule, the GI50 (OVCAR-3) was 604 nM, the activity at 10 µM (SK-MEL-5) was -98.5% and the GI50 (OVCAR-8) was 1130 nM. It also gave a GI50 (Melanoma panel; read-out: GI50 Mean) of 920 nM, a GI50 (UACC-257) of 817 nM and an activity at 10 µM (SNB-19 [13]) of -96.5%. The GI50 (DU-145) was 1150 nM.

With `CC[C@]12C=CCN3CC[C@@]4(c5ccc(OC)cc5N(C)[C@H]4[C@@](O)(C(=O)OC)[C@@H]1OC(=O)CCCC[P+](c1ccc(OC)cc1)(c1ccc(OC)cc1)c1ccc(OC)cc1)[C@@H]32` [10b] the GI50 (A498) was 2930 nM, the activity at 10 µM (SF-539 [1]) was -97.5% and the activity at 10 µM (MDA-MB-435) was -88.5%. The GI50 (MCF7 [2]) was 105 nM, the activity at 10 µM (SR) was 23.2% and the GI50 (786-0) was 2590 nM. For the same molecule, the GI50 (SF-539 [3]) was 1520 nM, the activity at 10 µM (SK-MEL-2) was -91.4% and the activity at 10 µM (NCI-H226) was -63.6%. The GI50 (EKVX) was 185 nM, the activity at 10 µM (SN12C) was -95.3% and the activity at 10 µM (U251) was -95.9%. For the same molecule, the GI50 (RXF 393) was 524 nM, the activity at 10 µM (HOP-62) was -80.8% and the GI50 (NCI-H460 [4]) was 1150 nM. The GI50 (MDA-MB-468) was 264 nM, the activity at 10 µM (COLO 205) was -64.9% and the activity at 10 µM (HT29) was -63.1%. It also gave a GI50 (SF-295) of 1970 nM, an activity at 10 µM (MCF7 [5]) of -82.6% and a GI50 (PC-3) of 562 nM. The GI50 (SNB-19 [6]) was 484 nM, the GI50 (SK-MEL-28) was 486 nM and the GI50 (HOP-92) was 520 nM. For the same molecule, the GI50 (TK-10) was 1670 nM, the activity at 10 µM (SF-268) was -38.1% and the GI50 ([7]; read-out: GI50 Mean) was 1360 nM. For the same molecule, the GI50 (Prostate Cancer panel; read-out: GI50 Mean) was 8280 nM, the GI50 (KM12 [8]) was 675 nM and the activity at 10 µM (MALME-3M) was -97.2%. It also gave an activity at 10 µM (KM12 [9]) of -68.8%, an activity at 10 µM (UO-31) of 15.5% and an activity at 10 µM (RPMI-8226 [10]) of -68.8%. It also gave a GI50 (HL-60(TB)) of 234 nM, an activity at 10 µM (LOX IMVI) of -96.4% and an activity at 10 µM (NCI-H460 [11]) of -87%. For the same molecule, the GI50 (NCI-H23) was 1190 nM, the GI50 (RPMI-8226 [12]) was 299 nM and the activity at 10 µM (SW-620) was -88.7%. For the same molecule, the GI50 (OVCAR-3) was 634 nM, the activity at 10 µM (SK-MEL-5) was -97% and the GI50 (OVCAR-8) was 1990 nM. It also gave a GI50 (Melanoma panel; read-out: GI50 Mean) of 980 nM, a GI50 (UACC-257) of 792 nM and an activity at 10 µM (SNB-19 [13]) of -95.7%. It also gave a GI50 (DU-145) of 16000 nM.

Source: publication PMC12028158, “Synthesis and In Vitro Evaluation of the Anticancer Effect of Novel Phosphonium Vindoline Derivatives” (International Journal of Molecular Sciences, 2025)
